Measurements from patent US5538962A, “Antibiotic penem compounds” (Zeneca Limited, priority 1992, dated 1996).
Converted amounts (≈) assume the structure as drawn.

Assays:
Assay in all cases: MIC, in vitro Diagnostic Sensitivity Test, agar-dilution technique
Type in all cases: cell-based
Enterbacter cloacae 108 = settings: inoculum 10^4 CFU/spot, read-out: minimum inhibitory concentration (MIC)
From the text: (§1) The following results were obtained for representative compounds on a standard in vitro test system using Diagnostic Sensitivity Test. The antibacterial activity is described in terms of the minimum inhibitory concentration (MIC) determined by the agar-dilution technique with an inocukum size of 10^4 CFU/spot.

S. aureus 147N = settings: Staphylococcus aureus, inoculum 10^4 CFU/spot, read-out: minimum inhibitory concentration (MIC)
From the text: as §1

E. coli TEM = settings: Escherichia coli, read-out: minimum inhibitory concentration (MIC)
From the text: as §1

Enterobacter cloacae 029 = settings: inoculum 10^4 CFU/spot, read-out: minimum inhibitory concentration (MIC)
From the text: as §1

Row | Compound | MIC (Enterbacter cloacae 108) | MIC (S. aureus 147N) | MIC (E. coli TEM) | MIC (Enterobacter cloacae 029)
1 | CO/N=C(\C(=O)N[C@@H]1C(=O)N2C(C(=O)O)=C(CSc3nc(=O)c(=O)[nH]n3C)CS[C@H]12)c1csc(N)n1 [ceftriaxone] | 32 µg/mL (≈ 57.7 µM) | 2 µg/mL (≈ 3.61 µM) | 0.03 µg/mL (≈ 0.0541 µM) | 0.06 µg/mL (≈ 0.108 µM)
2 | CC(O)C1C(=O)N2C(C(=O)O)=C(SC3CNC(C(=O)Nc4csc(C(=O)O)c4)C3)SC12 [Example 1, (5R,6S,8R,2'S,4'S)-2-(2-(2-carboxy-4-thienylcarbamoyl)pyrrolidin-4-ylthio)-6-(1-hydroxyethyl)pen-2-em-3-carboxlic acid] | 0.5 µg/mL (≈ 1.03 µM) | 0.125 µg/mL (≈ 0.257 µM) | 0.008 µg/mL (≈ 0.0165 µM) | 0.015 µg/mL (≈ 0.0309 µM)
